Results reported in patent EP4428124A1, “MODULATORS OF SORTILIN ACTIVITY” (Vesper Bio Aps, priority 2023, dated 2024).
Structures can show the parent of a compound that is named as a salt.

Tests used:
Human (6-His)Sortilin = molecular target: T1, Human (6-His)Sortilin (Homo sapiens, UniProt Q99523); experiment: Human Sortilin GCI (Grating-Coupled Interferometry) binding assay; details: immobilised Human (6-His)Sortilin, Creoptix WAVE-RAPID, single concentration, 1:1 kinetic model; read-out: h-Sortilin GCI KD
T1 construct: purchased RnD Systems
T1 sequence (Q99523 78-831): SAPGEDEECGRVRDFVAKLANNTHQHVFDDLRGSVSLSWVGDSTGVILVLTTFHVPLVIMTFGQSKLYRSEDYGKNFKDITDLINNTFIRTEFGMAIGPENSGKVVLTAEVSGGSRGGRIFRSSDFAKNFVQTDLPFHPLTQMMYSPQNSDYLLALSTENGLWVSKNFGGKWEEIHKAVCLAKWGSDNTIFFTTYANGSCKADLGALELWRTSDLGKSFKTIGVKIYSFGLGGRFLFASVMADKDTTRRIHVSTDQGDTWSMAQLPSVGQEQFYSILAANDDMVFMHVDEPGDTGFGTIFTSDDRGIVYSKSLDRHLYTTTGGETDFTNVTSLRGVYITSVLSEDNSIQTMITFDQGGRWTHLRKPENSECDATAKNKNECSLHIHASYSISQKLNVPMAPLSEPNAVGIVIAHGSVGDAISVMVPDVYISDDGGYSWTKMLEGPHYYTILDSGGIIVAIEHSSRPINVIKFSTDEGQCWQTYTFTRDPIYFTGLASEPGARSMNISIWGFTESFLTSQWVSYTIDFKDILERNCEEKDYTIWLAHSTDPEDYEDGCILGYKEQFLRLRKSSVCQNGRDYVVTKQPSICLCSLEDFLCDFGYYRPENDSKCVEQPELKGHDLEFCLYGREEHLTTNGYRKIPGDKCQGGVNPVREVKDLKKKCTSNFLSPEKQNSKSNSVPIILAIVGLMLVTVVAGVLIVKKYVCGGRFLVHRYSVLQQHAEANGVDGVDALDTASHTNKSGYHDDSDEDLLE

h-Sortilin = molecular target: T2, h-Sortilin (Homo sapiens, UniProt Q99523); experiment: Neurotensin scintillation proximity assay (SPA); format: binding; details: displacement of 5 nM [3H]-Neurotensin, 150 nM 6his-Sortilin; average of at least 2 determinations
T2 sequence (Q99523 78-831): T1 sequence (Q99523 78-831)
Method: NTS, which is a 13 amino acid neuropeptide, is a sortilin ligand. […] Compound affinity was determined by measuring the displacement of [^3H]-neurotensin binding to h-Sortilin in SPA format. Total volume of 40 µl in 50 mM HEPES pH 7.4 assay buffer containing 100 mM NaCl, 2.0 mM CaCl2, 0.1 % BSA and 0.1 % Tween-20. Compound pre-incubation for 30 minutes at room temperature with 150 nM of 6his-Sortilin before 5 nM [3H]-Neurotensin and Ni chelate imaging beads (Perkin Elmer) were added, after 6 hours the plate was read on a ViewLux with 360 s exposure time. Dose-response evaluation of compounds was performed with 8 concentrations of drugs (covering 3 decades). IC50 values were calculated by nonlinear regression using the sigmoid concentration-response (variable slope) using CDD Vault software. All values reported are average of at least 2 determinations.

[1] = molecular target: T3, Sortilin receptor at the cell surface (Homo sapiens, UniProt Q99523); experiment: Progranulin cell surface engagement assay; format: cell-based; details: displacement of 100 nM PGRN-AF647, HEK293 engineered to express sortilin, on ice; average of at least 2 determinations
T3 construct: expressed in transfected cells; host or cells: HEK293
T3 sequence (Q99523 78-831): T1 sequence (Q99523 78-831)
Method: PGRN is a sortilin ligand.
Compound affinity was determined by measuring the ability of compounds to displace the binding of Progranulin-Alexa Fluor 647 (PGRN-AF647) binding to the Sortilin receptor at the cell surface. HEK293 engineered to express sortilin were pre-incubated with compound for 30 minutes on ice in 20 µl assay buffer containing 1% BSA in PBS. Dose-response evaluation of compounds was performed with 10 concentrations of drugs (10 point half log curve). PGRN-AF647 was added at 100 nM concentration in 20 µl assay buffer for 2 hours on ice. Data was acquired using iQue flow cytometer (IntelliCyt). IC50 values were calculated by nonlinear regression using the sigmoid concentration-response (variable slope) using CDD Vault software. All values reported are average of at least 2 determinations.

SMILES: CC(C)(C)CCC(C)(NCc1cncnc1)C(=O)O (stereo not drawn) [Example 11]
- Kd (Human (6-His)Sortilin): 73500 nM

SMILES: COc1cccc(CNC(C)(CCC(C)(C)C)C(=O)O)c1 (racemic) [Example 4, 2-((3-methoxybenzyl)amino)-2,5,5-trimethylhexanoic acid hydrochloride]
- IC50 (h-Sortilin): 4020 nM

SMILES: CC(C)(C)CC[C@](C)(NCc1cncnc1)C(=O)O (single isomer, unassigned) [Example 10]
- IC50 (h-Sortilin): 383 nM
- Kd (Human (6-His)Sortilin): 804 nM
- IC50 [1]: 680 nM

SMILES: CC(C)(C)CC[C@@](C)(NCc1ccccc1)C(=O)O [Example 3, (R)-2-benzylamino-2,5,5-trimethylhexanoic acid]
- Kd (Human (6-His)Sortilin): 21400 nM

SMILES: COc1cccc(CN[C@@](C)(CCC(C)(C)C)C(=O)O)c1 [Example 5, (S)-2-((3-methoxybenzyl)amino)-2,5,5-trimethylhexanoic acid hydrochloride]
- IC50 (h-Sortilin): 1330 nM

SMILES: CC(C)(C)CCC(C)(NCc1cncnc1)C(=O)O (racemic) [Example 8, 2,5,5-trimethyl-2-{[(5-pyrimidinyl)methyl]amino}hexanoic acid]
- IC50 (h-Sortilin): 840 nM
- Kd (Human (6-His)Sortilin): 4220 nM

SMILES: CC(C)(C)CCC(C)(NCCCc1ccccc1)C(=O)O (racemic) [Example 9, 2,5,5-trimethyl-2-(3-phenylpropylamino)hexanoic acid]
- IC50 (h-Sortilin): 9740 nM

SMILES: COc1cccc(CNC(C)(CCC(C)C)C(=O)O)c1 (racemic) [Example 7, 2-{[(m-methoxyphenyl)methyl]amino}-2,5-dimethylhexanoic acid]
- Kd (Human (6-His)Sortilin): 1270 nM

SMILES: CC(C)(C)CCC(C)(NCc1ccccc1)C(=O)O (racemic) [Example 1, rac-2-benzylamino-2,5,5-trimethylhexanoic acid]
- IC50 (h-Sortilin): 2500 nM
- Kd (Human (6-His)Sortilin): 621 nM

SMILES: CC(C)(C)CC[C@](C)(NCc1ccccc1)C(=O)O [Example 2, (S)-2-benzylamino-2,5,5-trimethylhexanoic acid]
- IC50 (h-Sortilin): 2970 nM
- Kd (Human (6-His)Sortilin): 393 nM
